These results are taken from US20250257064A1, “TRIFLUOROMETHYL-SUBSTITUTED SULFONAMIDE AS BCL-2-SELECTIVE INHIBITOR” (Chia Tai Tianqing Pharmaceutical Group Co., Ltd., priority 2018, published 2025).

The term IC50 denotes the concentration that gives 50% inhibition. Read a low IC50 as greater potency.

The target in assay [1] is T1, BCL-2/BAK (Homo sapiens, UniProt P10415).
T1 construct: purchased Cisbio
The assay is described as follows: Screening on inhibitory activity for BCL-2/BAK binding (Cisbio HTRF kit). As for the experimental part: 1.1 Screening on Inhibitory Activity for BCL-2/BAK Binding
500 nM Tag1-BCL-2 protein stock solution and 20 μM Tag2-BAK protein stock solution were diluted to 5 nM and 120 nM respectively with dilution buffer in kit (model: BCL-2/BAK (BH3) BINDING ASSAY KITS, from Cisbio). 5 μL of Tag1-BCL-2 protein diluent was added to each well, then different compounds dissolved with DMSO were added to the wells with a nanoliter pipettor, allowing the final compound concentrations to be 200 nM to 0.0488 nM (4-fold gradient for 7 concentrations in total). Blank control wells (without enzyme) and negative control wells (with enzyme, plus vehicle DMSO) were set, and 2 replicate wells were set. Finally, 5 μL of Tag2-BAK protein diluent was added to each well, and the mixture was mixed well by centrifugation and incubated at 25° C. for 15 min. 100× anti-Tag1-Eu^3+ and 100× anti-Tag2-XL665 were both diluted to 1× working concentration with the detection buffer in the kit. Anti-Tag1-Eu^3+ and anti-Tag2-XL665 were mixed well in a 1:1 ratio, and the mixture was added to wells at 5 μL/well, and incubated at 25° C. for 2 h or more. The plate was read using a PE Envision multi-functional microplate reader (excitation: […], emission: 665 nm) and IC50 (shown in table 1) was calculated by four-parameter fitting.
(In general: Time-resolved FRET reads energy transfer from a long-lived donor to a nearby acceptor.)

Assay [2] deals with T2, BCL-XL/BAK (Homo sapiens, UniProt Q07817).
T2 construct: purchased Cisbio
The assay is described as follows: Screening on inhibitory activity for BCL-XL/BAK binding (Cisbio HTRF kit). As for the experimental part: 1.2 Screening on Inhibitory Activity for BCL-XL/BAK Binding
300 nM Tag1-BCL-XL protein stock solution and 10 μM Tag2-BAK protein stock solution were diluted to 2 nM and 80 nM respectively with dilution buffer in kit (model: BCL-XL/BAK (BH3) BINDING ASSAY KITS, from Cisbio). 5 μL of Tag1-BCL-XL protein diluent was added to each well, then different compounds dissolved with DMSO were added to the wells with a nanoliter pipettor, allowing the final compound concentrations to be 2000 nM to 0.488 nM (4-fold gradient for 7 concentrations in total). Blank control wells (without enzyme) and negative control wells (with enzyme, plus vehicle DMSO) were set, and 2 replicate wells were set. Finally, 5 μL of Tag2-BAK protein diluent was added to each well, and the mixture was mixed well by centrifugation and incubated at 25° C. for 15 min. 100× anti-Tag1-Eu^3+ and 100× anti-Tag2-XL665 were both diluted to 1× working concentration with the detection buffer in the kit. Anti-Tag1-Eu^3+ and anti-Tag2-XL665 were mixed well in a 1:1 ratio, and the mixture was added to wells at 5 µL/well, and incubated at 25° C. for 2 h or more. The plate was read using a PE Envision multi-functional microplate reader (excitation: […], emission: 665 nm) and IC50 (shown in table 1) was calculated by four-parameter fitting.

Assay [3] has as its system RS4;11 cells. The assay is described as follows: Inhibitory effect on proliferation of RS4;11 cells (CCK-8). In kind it is cell-based, human. The conditions noted are these: Homo sapiens, RS4-11, 72 h. As for the experimental part: Experimental Example 2: Inhibitory Effect of Compounds on Proliferation of RS4;11 Cells
RS4;11 cells (from Nanjing Cobioer) in logarithmic growth phase and good cell condition were added to a centrifuge tube and centrifuged at 1500 rpm for 3 min in a low speed centrifuge. The supernatant was discarded, and 5 mL of complete medium (RPMI basic medium+10 wt % fetal bovine serum (FBS)) was added using a pipette for cell resuspension. The cells were counted using a cell counter, diluted with complete medium to a cell density of 2×10^5 cells/mL, and added with an equivalent amount of RPMI basic medium to adjust the serum concentration to 5% and the cell density to 1×10^5 cells/mL for plate seeding. The cells were seeded on a 96-well plate at 100 μL/well using a pipettor, and incubated in an incubator at 37° C., 5% CO2 with saturated humidity. After 24 h of incubation, compounds were loaded using a nanoliter pipettor, 2 duplicate wells were set for each concentration, and cells without compound were used as negative controls. […] Inhibition rate (%)=(mean value of negative control group—mean value of experimental group)/(mean value of negative control group—mean value of blank group)×100%. A dose-response curve was fitted by four-parameter analysis, with the logarithm of compound concentration serving as abscissa and inhibition rate serving as ordinate, so that IC50 was calculated (FIG. 2).

T1 sequence (P10415 whole entry, species assumed): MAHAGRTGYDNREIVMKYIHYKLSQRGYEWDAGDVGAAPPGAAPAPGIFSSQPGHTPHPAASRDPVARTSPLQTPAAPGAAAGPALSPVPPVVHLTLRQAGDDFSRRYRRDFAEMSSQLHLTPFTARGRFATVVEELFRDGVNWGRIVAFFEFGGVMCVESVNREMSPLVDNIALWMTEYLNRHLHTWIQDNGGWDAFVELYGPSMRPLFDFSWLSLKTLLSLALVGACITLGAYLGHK
T2 sequence (Q07817 whole entry, species assumed): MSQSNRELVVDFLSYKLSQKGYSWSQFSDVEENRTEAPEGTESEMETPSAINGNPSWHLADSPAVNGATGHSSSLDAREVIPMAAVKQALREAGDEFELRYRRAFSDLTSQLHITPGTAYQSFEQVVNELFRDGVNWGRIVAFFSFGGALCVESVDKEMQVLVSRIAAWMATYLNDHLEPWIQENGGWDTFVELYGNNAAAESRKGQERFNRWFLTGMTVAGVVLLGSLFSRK

As for `COC(=O)N1CCOC(CNc2ccc(S(=O)(=O)NC(=O)c3ccc(N4CCN(CC5=C(c6ccc(C(F)(F)F)cc6Cl)CC(C)(C)CC5)CC4)cc3Oc3cnc4[nH]ccc4c3)cc2[N+](=O)[O-])C1` (stereo not drawn) [Compound 75-1, 4-(4-{[2-(2-chloro-4-trifluoromethylphenyl)-4,4-dimethylcyclohex-1-enyl]methyl}-piperazin-1-yl)-N-({3-nitro-4-[((4-(methoxyformyl)morpholin-2-yl)methyl)amino]phenyl}sulfonyl)-2-(1H-pyrrolo[2,3-b]pyridin-5-yloxy)-benzamide], the IC50 in assay [1] worked out at 3.5 nM; in assay [2], 322 nM; in assay [3] it was 3.9 nM.

In the case of `CC(C)C(=O)N1CCC(CNc2ccc(S(=O)(=O)NC(=O)c3ccc(N4CCN(CC5=C(c6ccc(C(F)(F)F)cc6Cl)CC(C)(C)CC5)CC4)cc3Oc3cnc4[nH]ccc4c3)cc2[N+](=O)[O-])CC1` [Compound 23-1], the concentration for half-maximal inhibition (IC50) in assay [1] amounted to 5.1 nM; in assay [2], 302 nM; in assay [3], 10 nM.

With `CCOC(=O)N1CCOC(CNc2ccc(S(=O)(=O)NC(=O)c3ccc(N4CCN(CC5=C(c6ccc(C(F)(F)F)cc6Cl)CC(C)(C)CC5)CC4)cc3Oc3cnc4[nH]ccc4c3)cc2[N+](=O)[O-])C1` (stereo not drawn) [Compound 74-1, 4-(4-{[2-(2-chloro-4-trifluoromethylphenyl)-4,4-dimethylcyclohex-1-enyl]methyl}-piperazin-1-yl)-N-({3-nitro-4-[((4-(ethoxyformyl)morpholin-2-yl)methyl)amino]phenyl}sulfonyl)-2-(1H-pyrrolo[2,3-b]pyridin-5-yloxy)-benzamide], the 50% inhibitory concentration (IC50) was determined as 1.66 nM in assay [1], 252 nM in assay [2] and 6.9 nM in assay [3].

Consider `CC1(C)CCC(CN2CCN(c3ccc(C(=O)NS(=O)(=O)c4ccc(NCC5CN(C(=O)C(F)(F)F)CCO5)c([N+](=O)[O-])c4)c(Oc4cnc5[nH]ccc5c4)c3)CC2)=C(c2ccc(C(F)(F)F)cc2Cl)C1` (stereo not drawn) [Compound 52-1, 4-(4-{[2-(2-chloro-4-trifluoromethylphenyl)-4,4-dimethylcyclohex-1-enyl]methyl}-piperazin-1-yl)-N-({3-nitro-4-[((4-(2,2,2-trifluoroacetyl)morpholin-2-yl)methyl)amino]phenyl}sulfonyl)-2-(1H-pyrrolo[2,3-b]pyridin-5-yloxy)-benzamide], for which the half-inhibitory concentration (IC50) was found to be 3.9 nM in assay [1], 175 nM in assay [2] and 0.9 nM in assay [3].

With `CC(C)C(=O)N1CCO[C@H](CNc2ccc(S(=O)(=O)NC(=O)c3ccc(N4CCN(CC5=C(c6ccc(C(F)(F)F)cc6Cl)CC(C)(C)CC5)CC4)cc3Oc3cnc4[nH]ccc4c3)cc2[N+](=O)[O-])C1` [Compound 66-1, (R)-4-(4-{[2-(2-chloro-4-trifluoromethylphenyl)-4,4-dimethylcyclohex-1-enyl]methyl}-piperazin-1-yl)-N-({3-nitro-4-[((4-isobutyrylmorpholin-2-yl)methyl)amino]phenyl}sulfonyl)-2-(1H-pyrrolo[2,3-b]pyridin-5-yloxy)-benzamide], the values for the IC50 in assay [1], in assay [2] and in assay [3] were 2.6 nM, 273 nM and 3.3 nM, respectively.

As for `CC1(C)CCC(CN2CCN(c3ccc(C(=O)NS(=O)(=O)c4ccc(NCCCC5CN(S(C)(=O)=O)CCO5)c([N+](=O)[O-])c4)c(Oc4cnc5[nH]ccc5c4)c3)CC2)=C(c2ccc(C(F)(F)F)cc2Cl)C1` (stereo not drawn) [Compound 71-1, 4-(4-{[2-(2-chloro-4-trifluoromethylphenyl)-4,4-dimethylcyclohex-1-enyl]methyl}-piperazin-1-yl)-N-({3-nitro-4-[(3-(4-(2-methylsulfonyl)morpholin-2-yl)propyl)amino]phenyl}sulfonyl)-2-(1H-pyrrolo[2,3-b]pyridin-5-yloxy)-benzamide], the half-inhibitory concentration (IC50) was found to be 0.76 nM in assay [1], 109 nM in assay [2] and 6.1 nM in assay [3].

Regarding `CC1(C)CCC(CN2CCN(c3ccc(C(=O)NS(=O)(=O)c4ccc(NC[C@H]5CCCOC5)c([N+](=O)[O-])c4)c(Oc4cnc5[nH]ccc5c4)c3)CC2)=C(c2ccc(C(F)(F)F)cc2Cl)C1` [Compound 42-1, (R)-4-(4-{[2-(2-chloro-4-trifluoromethylphenyl)-4,4-dimethylcyclohex-1-enyl]methyl}-piperazin-1-yl)-N-({3-nitro-4-[((tetrahydropyran-3-yl)methyl)amino]phenyl}sulfonyl)-2-(1H-pyrrolo[2,3-b]pyridin-5-yloxy)-benzamide], the IC50 in assay [1] worked out at 2.81 nM; in assay [2], 220 nM; in assay [3], 6.8 nM.

`COCC(=O)N1CCCC(CNc2ccc(S(=O)(=O)NC(=O)c3ccc(N4CCN(CC5=C(c6ccc(C(F)(F)F)cc6Cl)CC(C)(C)CC5)CC4)cc3Oc3cnc4[nH]ccc4c3)cc2[N+](=O)[O-])C1` (stereo not drawn) [Compound 58-1, 4-(4-{[2-(2-chloro-4-trifluoromethylphenyl)-4,4-dimethylcyclohex-1-enyl]methyl}-piperazin-1-yl)-N-({3-nitro-4-[((1-(2-methoxyacetyl)piperidin-3-yl)methyl)amino]phenyl}sulfonyl)-2-(1H-pyrrolo[2,3-b]pyridin-5-yloxy)-benzamide]: the results for the 50% inhibitory concentration (IC50) in assay [1], in assay [2] and in assay [3] were 2.35 nM, 145 nM and 5.3 nM, respectively.

Consider `CC1(C)CCC(CN2CCN(c3ccc(C(=O)NS(=O)(=O)c4ccc(NC[C@H]5CN(S(C)(=O)=O)CCO5)c([N+](=O)[O-])c4)c(Oc4cnc5[nH]ccc5c4)c3)CC2)=C(c2ccc(C(F)(F)F)cc2Cl)C1` [Compound 63-1, (S)-4-(4-{[2-(2-chloro-4-trifluoromethylphenyl)-4,4-dimethylcyclohex-1-enyl]methyl}-piperazin-1-yl)-N-({3-nitro-4-[(((4-(methylsulfonyl)morpholin)-2-yl)methyl)amino]phenyl}sulfonyl)-2-(1H-pyrrolo[2,3-b]pyridin-5-yloxy)-benzamide], for which the half-maximal inhibitory concentration (IC50) in assay [1] is 2.3 nM; in assay [2], 217 nM; in assay [3] it was 1.4 nM.

Turning to `CC1(C)CCC(CN2CCN(c3ccc(C(=O)NS(=O)(=O)c4ccc(NCC5CCCN(S(C)(=O)=O)C5)c([N+](=O)[O-])c4)c(Oc4cnc5[nH]ccc5c4)c3)CC2)=C(c2ccc(C(F)(F)F)cc2Cl)C1` (stereo not drawn) [Compound 15-1], the results for the IC50 in assay [1], in assay [2] and in assay [3] were 3.83 nM, 729 nM and 7.2 nM, respectively.

In the case of `CC1(C)CCC(CN2CCN(c3ccc(C(=O)NS(=O)(=O)c4ccc(NCC5CN(C=O)CCO5)c([N+](=O)[O-])c4)c(Oc4cnc5[nH]ccc5c4)c3)CC2)=C(c2ccc(C(F)(F)F)cc2Cl)C1` (stereo not drawn) [Compound 48-1, 4-(4-{[2-(2-chloro-4-trifluoromethylphenyl)-4,4-dimethylcyclohex-1-enyl]methyl}-piperazin-1-yl)-N-({3-nitro-4-[((N-formylmorpholin-2-yl)methyl)amino]phenyl}sulfonyl)-2-(1H-pyrrolo[2,3-b]pyridin-5-yloxy)-benzamide], the IC50 in assay [1] was determined as 1.4 nM; in assay [2], 118 nM; in assay [3], 1.4 nM.
